# Where two headings read alike, the source gives them in different places. Starred links: 1 amine or outer side, 2 acyl side, 3 side chain; linkers in the order of their positions; H or OH if unused. Non-standard residues stand in square brackets, D forms with d. Residues, ends and D or L forms follow the SMILES beside them. *: point of attachment. Ala(piperidin-4-yl) = O=C([C@H](CC1CCN([*:3])CC1)N[*:1])[*:2]; Malonyl(2,2-Me2,histaminyl) = CC(C)(C(=O)NCCc1cnc[nH]1)C(=O)*; dBip = N[C@H](Cc1ccc(-c2ccccc2)cc1)C(=O)O; Oic = O=C(O)[C@@H]1C[C@@H]2CCCC[C@@H]2N1; Phe(4-Br) = N[C@@H](Cc1ccc(Br)cc1)C(=O)O; X2 = COCCOCCOCCOCCOCCNC(=O)C(C)(C)C(=O)*; X1 = CC(C)(C(=O)NCCc1ccccc1)C(=O)*; X3 = CC(C)(C(=O)NCCc1ccccn1)C(=O)*; Ser(ΨH,HPro) = O=C(O)[C@@H]1COCN1; hArg = N=C(N)NCCCC[C@H](N)C(=O)O; hPhe = N[C@@H](CCc1ccccc1)C(=O)O; Aib = CC(C)(N)C(=O)O
# Experiments:
# [1] = biological target: T1, human Apelin receptor (Homo sapiens, UniProt P35414); experiment: β-arrestin accumulation assay, functional agonism of human Apelin receptors; assay type: cell-based
# T1 construct: host or cells: CHO-K1 cells
# Description: β-arrestin assay. […] After 16 h incubation at 37° C. media was removed and cells were incubated at 37° C. for 90 min in serum free media containing increasing concentrations of test agonist. The assay reaction was stopped by adding detection reagent (DiscoveRx) and incubation for 60 min in the dark. Levels of receptor activation were then measured on a PheraStar fluorescence plate reader (BMG LabTech) and EC50 values were determined using Graphpad Prism.
# T1 sequence (P32121 whole entry partner, one chain of several): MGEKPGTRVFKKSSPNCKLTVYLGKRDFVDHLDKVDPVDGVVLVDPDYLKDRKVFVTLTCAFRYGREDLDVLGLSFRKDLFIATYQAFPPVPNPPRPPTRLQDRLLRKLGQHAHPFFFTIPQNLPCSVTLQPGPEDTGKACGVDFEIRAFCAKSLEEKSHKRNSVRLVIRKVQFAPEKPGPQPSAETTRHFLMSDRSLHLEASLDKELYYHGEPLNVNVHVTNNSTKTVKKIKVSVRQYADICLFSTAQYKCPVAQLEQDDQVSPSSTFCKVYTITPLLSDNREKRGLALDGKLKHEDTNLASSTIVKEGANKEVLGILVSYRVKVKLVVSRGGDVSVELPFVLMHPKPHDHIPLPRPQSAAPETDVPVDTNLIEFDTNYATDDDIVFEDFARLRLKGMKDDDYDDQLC
# [2] = biological target: T2, human Apelin receptor (Homo sapiens, UniProt P35414); experiment: cAMP accumulation assay (HTRF), functional agonism of human Apelin receptors; assay type: cell-based
# T2 sequence (P35414 1-380): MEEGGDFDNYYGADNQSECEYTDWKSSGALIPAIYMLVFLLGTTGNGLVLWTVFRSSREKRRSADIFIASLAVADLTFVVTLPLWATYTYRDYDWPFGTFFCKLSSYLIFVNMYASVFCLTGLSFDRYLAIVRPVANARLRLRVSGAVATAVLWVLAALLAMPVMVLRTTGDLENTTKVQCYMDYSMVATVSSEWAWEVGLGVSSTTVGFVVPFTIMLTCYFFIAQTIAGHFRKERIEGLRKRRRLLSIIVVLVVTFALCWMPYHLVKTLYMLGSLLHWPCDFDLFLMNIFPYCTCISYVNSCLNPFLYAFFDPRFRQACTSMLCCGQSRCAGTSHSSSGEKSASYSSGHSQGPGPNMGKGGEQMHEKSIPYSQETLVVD
# Description: cAMP functional assay. cAMP production was quantified using the Homogeneous Time-Resolved Fluorescence (HTRF) cAMP dynamic-2 assay (Cisbio, France).
# [3] = CHO, Human Apelin agonist cAMP assay, CHO cells stably expressing the human Apelin receptor, 3 uM forskolin
# [4] = pEC50, Human Apelin agonist cAMP assay, CHO cells stably expressing the human Apelin receptor, 3 uM forskolin
compound,measurement,setting,value
"CC(C)C[C@H](NC(=O)[C@@H](CCCNC(=N)N)NC(=O)C1C2CC2CN1C(=O)[C@H](CCCCNC(=N)N)NC(=O)[C@H](CCC(N)=O)NC(=O)[C@@H](CCCNC(=N)N)NC(=O)C(C)(C)C(=O)NCCc1c[nH]cn1)C(=O)NC(C)(C)C(=O)N[C@@H](Cc1c[nH]cn1)C(=O)N[C@@H](CC1CCNCC1)C(=O)NCC(=O)N1[C@H](C(=O)N[C@@H](Cc2ccc(Br)cc2)C(=O)N2CCC[C@H]2C(=O)N[C@H](Cc2ccc(-c3ccccc3)cc2)C(=O)O)C[C@@H]2CCCC[C@@H]21 (single isomer, unassigned) [37 Isomer 1]",EC50,[1],> 100 µM
same,Emax,[2]; [3],68.6%
same,EC50,[2]; [4],0.01 µM
"CC(C)C[C@H](NC(=O)[C@@H](CCCNC(=N)N)NC(=O)C1C2CC2CN1C(=O)[C@H](CCCCNC(=N)N)NC(=O)[C@H](CCC(N)=O)NC(=O)[C@@H](CCCNC(=N)N)NC(=O)C(C)(C)C(=O)NCCc1c[nH]cn1)C(=O)NC(C)(C)C(=O)N[C@@H](Cc1c[nH]cn1)C(=O)N[C@@H](CC1CCNCC1)C(=O)NCC(=O)N1[C@H](C(=O)N[C@@H](Cc2ccc(Br)cc2)C(=O)N2CCC[C@H]2C(=O)N[C@H](Cc2ccc(-c3ccccc3)cc2)C(=O)O)C[C@@H]2CCCC[C@@H]21 (single isomer, unassigned) [37 Isomer 2]",Human Apelin agonist β-arrestin assay pEC50,"[1]; CHO-K1 cells overexpressing human Apelin receptor and β-arrestin, 90 min",<4
same,Emax,"[2]; Human Apelin agonist cAMP assay, CHO cells stably expressing the human Apelin receptor, 3 uM forskolin",68.9
same,EC50,[2]; [4],0.00501 µM
"CC(C)C[C@H](NC(=O)[C@@H](CCCNC(=N)N)NC(=O)[C@@H]1CCCN1C(=O)[C@H](CCCCNC(=N)N)NC(=O)[C@H](CCC(N)=O)NC(=O)[C@@H](CCCNC(=N)N)NC(=O)C(C)(C)C(=O)NCCc1cnc[nH]1)C(=O)N[C@H](C)C(=O)N[C@@H](Cc1c[nH]cn1)C(=O)N[C@@H](CC1CCNCC1)C(=O)NCC(=O)N1[C@H](C(=O)N[C@@H](Cc2ccc(Br)cc2)C(=O)N2CCC[C@H]2C(=O)N[C@H](Cc2ccc(-c3ccccc3)cc2)C(=O)O)C[C@@H]2CCCC[C@@H]21 [Example 1] ({Malonyl(2,2-Me2,histaminyl)}-[dR]Q[hArg]P[dR]L[dA]H[Ala(piperidin-4-yl)]G[Oic][Phe(4-Br)]P[dBip]-OH)",EC50,[1],> 10 µM
same,Emax,[2]; [3],27.2%
same,EC50,[2]; [4],0.0158 µM
"CC(C)C[C@H](NC(=O)[C@@H](CCCNC(=N)N)NC(=O)[C@@H]1CCCN1C(=O)[C@H](CCCCNC(=N)N)NC(=O)[C@H](CCC(N)=O)NC(=O)[C@@H](CCCNC(=N)N)NC(=O)C(C)(C)C(=O)NCCc1cnc[nH]1)C(=O)NC(C)(C)C(=O)N[C@@H](Cc1c[nH]cn1)C(=O)N[C@@H](CC1CCNCC1)C(=O)NCC(=O)N1[C@H](C(=O)N[C@@H](Cc2ccc(Br)cc2)C(=O)N2CCC[C@H]2C(=O)N[C@H](Cc2ccc(-c3ccccc3)cc2)C(=O)O)C[C@@H]2CCCC[C@@H]21 [Example 2] ({Malonyl(2,2-Me2,histaminyl)}-[dR]Q[hArg]P[dR]L[Aib]H[Ala(piperidin-4-yl)]G[Oic][Phe(4-Br)]P[dBip]-OH)",EC50,[1],> 10 µM
same,Emax,[2]; [3],50.8%
same,EC50,[2]; [4],0.02 µM
CC(C)C[C@H](NC(=O)[C@@H](CCCNC(=N)N)NC(=O)[C@@H]1CCCN1C(=O)[C@H](CCCCNC(=N)N)NC(=O)[C@H](CCC(N)=O)NC(=O)[C@@H](CCCNC(=N)N)NC(=O)C(C)(C)C(=O)NCCc1ccccc1)C(=O)NC(C)(C)C(=O)N[C@@H](Cc1c[nH]cn1)C(=O)N[C@@H](CC1CCNCC1)C(=O)NCC(=O)N1[C@H](C(=O)N[C@@H](Cc2ccc(Br)cc2)C(=O)N2CCC[C@H]2C(=O)N[C@H](Cc2ccc(-c3ccccc3)cc2)C(=O)O)C[C@@H]2CCCC[C@@H]21 [Example 5] (X1-[dR]Q[hArg]P[dR]L[Aib]H[Ala(piperidin-4-yl)]G[Oic][Phe(4-Br)]P[dBip]-OH),EC50,[1],> 10 µM
same,Emax,[2]; [3],47.2%
same,EC50,[2]; [4],0.0158 µM
CC(C)C[C@H](NC(=O)[C@@H](CCCNC(=N)N)NC(=O)[C@@H]1CCCN1C(=O)[C@H](CCCCNC(=N)N)NC(=O)[C@H](CCC(N)=O)NC(=O)[C@@H](CCCNC(=N)N)NC(=O)C(C)(C)C(=O)NCCc1ccccn1)C(=O)NC(C)(C)C(=O)N[C@@H](Cc1c[nH]cn1)C(=O)N[C@@H](CC1CCNCC1)C(=O)NCC(=O)N1[C@H](C(=O)N[C@@H](Cc2ccc(Br)cc2)C(=O)N2CCC[C@H]2C(=O)N[C@H](Cc2ccc(-c3ccccc3)cc2)C(=O)O)C[C@@H]2CCCC[C@@H]21 [Example 6] (X3-[dR]Q[hArg]P[dR]L[Aib]H[Ala(piperidin-4-yl)]G[Oic][Phe(4-Br)]P[dBip]-OH),EC50,[1],> 10 µM
same,Emax,[2]; [3],53.9%
same,EC50,[2]; [4],0.02 µM
COCCOCCOCCOCCOCCNC(=O)C(C)(C)C(=O)N[C@H](CCCNC(=N)N)C(=O)N[C@@H](CCC(N)=O)C(=O)N[C@@H](CCCCNC(=N)N)C(=O)N1CCC[C@H]1C(=O)N[C@H](CCCNC(=N)N)C(=O)N[C@@H](CC(C)C)C(=O)NC(C)(C)C(=O)N[C@@H](Cc1c[nH]cn1)C(=O)N[C@@H](CC1CCNCC1)C(=O)NCC(=O)N1[C@H](C(=O)N[C@@H](Cc2ccc(Br)cc2)C(=O)N2CCC[C@H]2C(=O)N[C@H](Cc2ccc(-c3ccccc3)cc2)C(=O)O)C[C@@H]2CCCC[C@@H]21 [Example 7] (X2-[dR]Q[hArg]P[dR]L[Aib]H[Ala(piperidin-4-yl)]G[Oic][Phe(4-Br)]P[dBip]-OH),EC50,[1],> 10 µM
same,Emax,"[2]; CHO, read-out: Emax",59.2%
same,EC50,[2]; read-out: pEC50 (converted),0.02 µM
"CC(C)C[C@H](NC(=O)[C@@H](CCCNC(=N)N)NC(=O)[C@@H]1CCCN1C(=O)[C@H](CCCCNC(=N)N)NC(=O)[C@H](CCc1ccccc1)NC(=O)[C@@H](CCCNC(=N)N)NC(=O)C(C)(C)C(=O)NCCc1c[nH]cn1)C(=O)NC(C)(C)C(=O)N[C@@H](Cc1c[nH]cn1)C(=O)N[C@@H](CC1CCNCC1)C(=O)NCC(=O)N1[C@H](C(=O)N[C@@H](Cc2ccc(Br)cc2)C(=O)N2CCC[C@H]2C(=O)N[C@H](Cc2ccc(-c3ccccc3)cc2)C(=O)O)C[C@@H]2CCCC[C@@H]21 [Example 8] ({Malonyl(2,2-Me2,histaminyl)}-[dR][hPhe][hArg]P[dR]L[Aib]H[Ala(piperidin-4-yl)]G[Oic][Phe(4-Br)]P[dBip]-OH)",EC50,[1],> 10 µM
same,Emax,[2]; [3],56.1%
same,EC50,[2]; [4],0.0158 µM
"CC(C)C[C@H](NC(=O)[C@@H](CCCNC(=N)N)NC(=O)[C@@H]1CCCN1C(=O)[C@H](CCCNC(=N)N)NC(=O)[C@H](CCC(N)=O)NC(=O)[C@@H](CCCNC(=N)N)NC(=O)C(C)(C)C(=O)NCCc1c[nH]cn1)C(=O)NC(C)(C)C(=O)N[C@@H](Cc1c[nH]cn1)C(=O)N[C@@H](CC1CCNCC1)C(=O)NCC(=O)N1[C@H](C(=O)N[C@@H](Cc2ccc(Br)cc2)C(=O)N2CCC[C@H]2C(=O)N[C@H](Cc2ccc(-c3ccccc3)cc2)C(=O)O)C[C@@H]2CCCC[C@@H]21 [Example 9] ({Malonyl(2,2-Me2,histaminyl)}-[dR]QRP[dR]L[Aib]H[Ala(piperidin-4-yl)]G[Oic][Phe(4-Br)]P[dBip]-OH)",EC50,[1],> 10 µM
same,Emax,[2]; [3],86.9%
same,EC50,[2]; [4],0.00631 µM
"CC(C)C[C@H](NC(=O)[C@@H](CCCNC(=N)N)NC(=O)[C@@H]1C[C@@H]2CCCC[C@@H]2N1C(=O)[C@H](CCCCNC(=N)N)NC(=O)[C@H](CCC(N)=O)NC(=O)[C@@H](CCCNC(=N)N)NC(=O)C(C)(C)C(=O)NCCc1c[nH]cn1)C(=O)NC(C)(C)C(=O)N[C@@H](Cc1c[nH]cn1)C(=O)N[C@@H](CC1CCNCC1)C(=O)NCC(=O)N1[C@H](C(=O)N[C@@H](Cc2ccc(Br)cc2)C(=O)N2CCC[C@H]2C(=O)N[C@H](Cc2ccc(-c3ccccc3)cc2)C(=O)O)C[C@@H]2CCCC[C@@H]21 [Example 10] ({Malonyl(2,2-Me2,histaminyl)}-[dR]Q[hArg][Oic][dR]L[Aib]H[Ala(piperidin-4-yl)]G[Oic][Phe(4-Br)]P[dBip]-OH)",EC50,[1],> 10 µM
same,Emax,[2]; [3],52.5%
same,EC50,[2]; [4],0.02 µM
"CC(C)C[C@H](NC(=O)[C@@H](CCCNC(=N)N)NC(=O)[C@@H]1COCN1C(=O)[C@H](CCCCNC(=N)N)NC(=O)[C@H](CCC(N)=O)NC(=O)[C@@H](CCCNC(=N)N)NC(=O)C(C)(C)C(=O)NCCc1c[nH]cn1)C(=O)NC(C)(C)C(=O)N[C@@H](Cc1c[nH]cn1)C(=O)N[C@@H](CC1CCNCC1)C(=O)NCC(=O)N1[C@H](C(=O)N[C@@H](Cc2ccc(Br)cc2)C(=O)N2CCC[C@H]2C(=O)N[C@H](Cc2ccc(-c3ccccc3)cc2)C(=O)O)C[C@@H]2CCCC[C@@H]21 [Example 11] ({Malonyl(2,2-Me2,histaminyl)}-[dR]Q[hArg][Ser(ΨH,HPro)][dR]L[Aib]H[Ala(piperidin-4-yl)]G[Oic][Phe(4-Br)]P[dBip]-OH)",EC50,[1],> 10 µM
same,Emax,[2]; [3],90.6%
same,EC50,[2]; [4],0.0126 µM
Apelin [reference compound],Human Apelin agonist β-arrestin assay Emax,"[1]; CHO-K1 cells overexpressing human Apelin receptor and β-arrestin, Emax only reported for active compounds",165.8
